Measurements from patent publication US6664263B2, “1,8-naphthalimide imidazo{4,5,1-de}acridones with anti-tumor activity” (priority 2000, dated 2003).
Read-outs that look alike come from different tables or passages of the source.

Assays:
A549 cells = assay: cells; settings: for IC50: read-out: IC50 - drug concentration which causes 50% cell growth inhibition
Method: (§1) Cancer Cell Lines. Human colon carcinoma HCT116 and HT29, human melanoma MELSK2, human lung cancer A549, human leukemia HL60 and human breast cancer MCF7 cells were purchased from the American Type Culture Collection (Rockville, Md.). Human pancreatic tumor cell lines 6.03 and 10.05 were a gift from Dr. Elizabeth Jaffe, Johns Hopkins University.
(§2) In Vitro Cytotoxicity Studies. Cells were seeded in quadruplicate for each studied concentration in 96-well plates (100 μL of medium containing 2000-2500 cells per well) and were allowed to grow for 24 h (day 0). Stock solutions (2.5 mM) of test compounds were prepared freshly by dissolving their free base forms in distilled water-DMSO (50:50) mixture containing two equivalents of methanesulfonic acid and then diluted in distilled water to the concentration of 500 μM. These solutions were used to prepare 2 μM working solution and its 10-fold serial dilutions in appropriate media. 100 μL of drug containing medium or vehicle (control) was added to each well on day 1. The cytotoxicity was determined using two different methods: the MTT-based, CellTiter96™ Non-Radioactive Cell Proliferation Assay (Promega Inc., Madison, Wis.) according to instructions provided by the manufacturer, and/or the sulforhodamine B (SRB) method (Skehan et al., J. Natl. Cancer Inst. 82:1107-1112 (1990)). At the time at which drugs were added assays were performed on extra reference plates to determine the cell population density at time 0 (T0). After 96 h incubation at 37 ° C. in a humidified atmosphere containing 5% CO2, the assays were performed on test (T) and control (C) plates. The absorbance of the wells was determined by a Microplate Reader at […]. Cellular responses were calculated from the data as described previously: 100×[(T−T0)/(C−T0)] for T>T0 and 100×[(T−T0)/T0] for T<T0. (Monks et al., J. Natl. Cancer Inst. 83:757-766 (1991)).
(§3) At the end of the test period the wells are treated with the MTT dye solution and incubated for 4 hours. Cells which are alive convert the yellow tetrazolium dye into the blue, insoluble formazan product. This precipitate is solubilized, and the absorption at 570 nm is read in an ELISA reader.

MELSK2 cells = assay: cells; settings: for IC50: read-out: IC50 - drug concentration which causes 50% cell growth inhibition
Method: as §1, §2, §3

HCT116 cells = assay: cells; settings: for IC50: read-out: IC50 - drug concentration which causes 50% cell growth inhibition; for growth inhibition of HCT116 at 1 nM: MTT dose-response
Method: as §1, §2, §3

HT29 cells = assay: cells; settings: for IC50: read-out: IC50 - drug concentration which causes 50% cell growth inhibition
Method: as §1, §2, §3

MCF7 cells = assay: cells; type: cell-based; settings: for IC50: read-out: IC50 - drug concentration which causes 50% cell growth inhibition
Description: (§4) In Vitro Cytotoxicity Studies.

HL60 cells = assay: cells; type: cell-based; settings: for IC50: read-out: IC50 - drug concentration which causes 50% cell growth inhibition
Description: as §4

[1] = tested on: NCI 60 human tumor cell line panel; assay: NCI 60 human tumor cell line panel; type: cell-based; settings: NCI 60 panel
[2] = tested on: pancreatic cell line 10.05; assay: SRB-based assay, pancreatic cell line 10.05 (FIG. 5); parameters: species or system human; settings: 120 hrs exposure
Description: as §4
(§5) The compound of Example 2 is also potently cytotoxic against extremely refractory pancreatic cancer cell lines. FIG. 5 presents the results of an SRB-based assay on the toxicity of Example 2 against the four cell lines mentioned above, and against two pancreatic cell lines, 6.03 and 10.05 (obtained from Dr. Elizabeth Jaffe, Johns Hopkins University, Baltimore Md.). […] were exposed to the agent for 120 hrs. It is clear that both of these lines are sensitive to the compound.

[3] = tested on: 10.05 pancreatic cancer cells; assay: Morphological examination of treated cells; type: cell-based, human; settings: 10.05 cells, treated vs untreated
Description: The FACS analysis evidence of apoptosis was substantiated by morphological examination of the treated 10.05 pancreatic cancer cells. […] Similar results were obtained with the 6.03 cells.

[4] = tested on: 10.05 pancreatic cancer line; assay: Flow cytometry (FACS) cell cycle analysis, 10.05; type: cell-based, human; settings: 10.05 cells
Method: (§6) Flow Cytometry Analysis. A suspension of 0.5×10^6 cells in 8 ml of medium were placed in 25 cm^2 T flask and allowed to attach for 24 h. The cells were then exposed for 6 h to 100 nM of drug . After removal of drug the cells were washed with PBS. Fresh medium (8 ml) was added and incubation at 37° C. in 5% CO2 in complete humidity was continued for an additional five days. At appropriate intervals, treated and control cells were released from flasks by incubation with trypsin (0.05 mg/ml)/EDTA (0.02 mg/ml) for 5 min at 37° C., collected in ice-cold PBS, combined with the removed medium that might contain floating cells, and centrifuged at 4° C. Cell pellets were re-suspended in PBS containing 1% fetal bovine serum. The cells were fixed and stained for fluorescence-activated cell sorting according to standard procedures (Crissman et al., Cytometry 3:84-90(1992)). Fluorescence histograms were obtained on a Coulter EPICS753 Cell Sorter using an argon laser and mean peaks were analyzed.
(§7) Similar cell cycle experiments were carried out on the 10.05 pancreatic cancer line.

[5] = tested on: HCT 116 colon cancer cell; assay: Flow cytometry (FACS) cell cycle analysis, HCT116; type: cell-based, human; settings: 100 nM for 6 hrs, then culture
Method: as §6
In order to determine the mode of cell death induced by the compounds of the invention, the effect of the compound of Example 2 on the cell cycle was studied, utilizing Fluorescence Activated Cell Sorting SACS) analysis. HCT 116 colon cancer cell were treated with the compound of Example 2 for 6 hrs at a concentration of 100 nM, and then allowed to grow in culture for varying times.

[6] = tested on: pancreatic cell line 6.03; assay: SRB-based assay, pancreatic cell line 6.03 (FIG. 5); parameters: species or system human; settings: 120 hrs exposure
Description: as §4, §5

[7] = tested on: HCT116, HT29, A549 and Mel.SK2 tumor cell lines; assay: Sulforhodamine B (SRB) assay on the four tumor types (FIG. 4); type: cell-based; settings: varying concentrations
Description: as §4

[8] = tested on: 6.03 pancreatic cancer cells; assay: Flow cytometry (FACS) cell cycle analysis, 6.03; type: cell-based, human; settings: 6.03 cells
Method: as §6, §7

[9] = tested on: HCT116, HT29, A549 and MelSK2 tumor cell lines; assay: MTT cell proliferation assay at 100 nM on four tumor cell lines (FIG. 2); type: cell-based; settings: 96 hours; for cytotoxic activity against the three adenocarcinomas: HCT116, HT29, A549
Method: as §1
as §2, with “(Monks et al., J. Natl. Cancer Inst. 83:757-766 (1991)).” left out
At the end of the test period the wells are treated with the MTT dye solution and incubated for 4 hours. […] This precipitate is solubilized, and the absorption at 570 nm is read in an ELISA reader.

[10] = read-out: LC50 - drug concentration which causes 50% cell death, A549, 96 h incubation
[11] = read-out: LC50 - drug concentration which causes 50% cell death, MELSK2, 96 h incubation
[12] = read-out: LC50 - drug concentration which causes 50% cell death, HCT116, 96 h incubation
[13] = read-out: LC50 - drug concentration which causes 50% cell death, HT29, 96 h incubation
[14] = MCF7, 96 h incubation, read-out: LC50 - drug concentration which causes 50% cell death
[15] = HL60, 96 h incubation, read-out: LC50 - drug concentration which causes 50% cell death

Row | Compound | IC50 (A549 cells; A549, 96 h incubation) [nM] | CC50 (A549 cells; [10]) [nM] | IC50 (MELSK2 cells; MELSK2, 96 h incubation) [nM] | CC50 (MELSK2 cells; [11]) [nM] | IC50 (HCT116 cells; HCT116, 96 h incubation) [nM] | CC50 (HCT116 cells; [12]) [nM] | IC50 (HT29 cells; HT29, 96 h incubation) [nM] | CC50 (HT29 cells; [13]) [nM] | IC50 (MCF7 cells; MCF7, 96 h incubation) [nM] | CC50 (MCF7 cells; [14]) [nM] | IC50 (HL60 cells; HL60, 96 h incubation) [nM] | CC50 (HL60 cells; [15]) [nM] | CC50 (A549 cells) [nM] | CC50 (MELSK2 cells) [nM] | CC50 (HCT116 cells) [nM] | growth inhibition of HCT116 at 1 nM (HCT116 cells; FIG. 3) | CC50 (HT29 cells) [nM] | CC50 (MCF7 cells) [nM] | CC50 (HL60 cells) [nM] | cytotoxic activity against the three adenocarcinomas [9] | further results
1 | CN(CCCNc1ccc2ncn3c4ccccc4c(=O)c1c23)CCCN1C(=O)c2cccc3cc([N+](=O)[O-])cc(c23)C1=O [Example 1] | 25 | 500 | 150 | > 1000 | 8 | 220 | 25 | 400 | 50 | > 1000 | 120 | 500 | – | – | – | – | – | – | – | – | –
2 | O=C1c2cccc3cc([N+](=O)[O-])cc(c23)C(=O)N1CCCN1CCN(CCCNc2ccc3ncn4c5ccccc5c(=O)c2c34)CC1 [Example 2] | 0.6 | – | 4 | – | 0.5 | – | 0.9 | – | 3.2 | – | 3.5 | – | 35 | 60 | 32 | almost complete growth inhibition | 65 | > 1000 | 33 | outstanding cytotoxic activity | median activity, growth inhibition of all of the tumor cell lines [1]: nanomolar range; effect on line 10.05 at 1 μM [2]: substantial cell death; morphology of treated cells [3]: evidence of chromatin fragmentation; apoptosis (growth of the sub-G1 fraction) at 144 hrs [4]: substantial apoptosis; cell cycle effect at 24 hrs ([5]; 24 hrs): growth arrested at G2-M; sub-G1 fraction (apoptotic death) at 96 hrs ([5]; 96 hrs): dominated the distribution; effect on line 6.03 at 100 nM [6]: growth arrested; cytotoxic activity in the SRB assay compared with MTT [7]: essentially mirror the results obtained with the MTT end-point; apoptosis by cell cycle analysis [8]: strong evidence of apoptosis
3 | O=C1c2cccc3cc([N+](=O)[O-])cc(c23)C(=O)N1CCCN1CCN(CCCNc2ccc3ncn4c5ccc(F)cc5c(=O)c2c34)CC1 [Example 4] | 0.6 | – | 4 | – | 0.5 | – | 1.5 | – | 3.5 | – | 3.5 | – | 35 | 70 | 35 | almost complete growth inhibition | 35 | > 1000 | 33 | outstanding cytotoxic activity | –
4 | Nc1cc2c3c(cccc3c1)C(=O)N(CCCN1CCN(CCCNc3ccc4ncn5c6ccccc6c(=O)c3c45)CC1)C2=O [Example 6] | 2.5 | 100 | 15 | 750 | 2.2 | 80 | 8 | 750 | 32 | > 1000 | 5 | 450 | – | – | – | – | – | – | – | – | –
5 | Nc1cc2c3c(cccc3c1)C(=O)N(CCCN1CCN(CCCNc3ccc4ncn5c6ccc(F)cc6c(=O)c3c45)CC1)C2=O [Example 8] | 2 | – | 20 | – | 1.8 | – | 3.5 | – | 46 | – | 4 | – | 150 | > 1000 | 230 | – | > 1000 | > 1000 | 450 | – | –
6 | CN(C)CCN1C(=O)c2cccc3cc([N+](=O)[O-])cc(c23)C1=O [Mitonafide, mitonafide, reference compound] | – | – | – | – | – | – | – | – | – | – | – | – | – | – | – | – | – | – | – | – | IC50 (A549 cells; Homo sapiens, A549, 96 h): 65 nM; CC50 (A549 cells; Homo sapiens, A549, 96 h, read-out: LC50 - drug concentration which causes 50% cell death): 800 nM; IC50 (MELSK2 cells; Homo sapiens, 96 h): 150 nM; CC50 (MELSK2 cells; Homo sapiens, 96 h, read-out: LC50 - drug concentration which causes 50% cell death): 700 nM; concentration at which almost complete growth inhibition is reached (HCT116 cells; HCT116, MTT dose-response, FIG. 3): 1 µM; IC50 (HCT116 cells; Homo sapiens, HCT-116, 96 h): 250 nM; CC50 (HCT116 cells; Homo sapiens, HCT-116, 96 h, read-out: LC50 - drug concentration which causes 50% cell death): > 1000 nM; IC50 (HT29 cells; Homo sapiens, HT-29, 96 h): 300 nM; IC50 (MCF7 cells; Homo sapiens, MCF7, 96 h): 245 nM; CC50 (MCF7 cells; Homo sapiens, MCF7, 96 h, read-out: LC50 - drug concentration which causes 50% cell death): > 1000 nM; IC50 (HL60 cells; Homo sapiens, HL-60, 96 h): 45 nM; CC50 (HL60 cells; Homo sapiens, HL-60, 96 h, read-out: LC50 - drug concentration which causes 50% cell death): 400 nM; activity at 100 nM drug concentration ([9]; HCT116, HT29, A549, MelSK2): not very active
